Laboratory results: patent US8399662B2, “O-acyloxime derivatives, preparation method thereof, and pharmaceutical composition containing the same for prevention and treatment of cardiovascular disease” (Korea Research Institute of Bioscience and Biotechnology, priority 2004, dated 2013)

What was measured:
Lp-PLA2 = target: T1, Lp-PLA2 (Homo sapiens, UniProt Q13093); assay: Measurement of Lp-PLA2 (PAF-AH) activity using [3H]PAF substrate and human LDL as enzyme source; type: biochemical; details: Lp-PLA2 from human LDL, average of two test results, read-out: Inhibition rate at 25 μM
T1 construct: LDL was isolated from the plasma by discontinuous density gradient ultra centrifugation; from tissue; host or cells: LDL fraction of human blood plasma from normal lipidemic volunteers
T1 sequence (Q13093 22-441): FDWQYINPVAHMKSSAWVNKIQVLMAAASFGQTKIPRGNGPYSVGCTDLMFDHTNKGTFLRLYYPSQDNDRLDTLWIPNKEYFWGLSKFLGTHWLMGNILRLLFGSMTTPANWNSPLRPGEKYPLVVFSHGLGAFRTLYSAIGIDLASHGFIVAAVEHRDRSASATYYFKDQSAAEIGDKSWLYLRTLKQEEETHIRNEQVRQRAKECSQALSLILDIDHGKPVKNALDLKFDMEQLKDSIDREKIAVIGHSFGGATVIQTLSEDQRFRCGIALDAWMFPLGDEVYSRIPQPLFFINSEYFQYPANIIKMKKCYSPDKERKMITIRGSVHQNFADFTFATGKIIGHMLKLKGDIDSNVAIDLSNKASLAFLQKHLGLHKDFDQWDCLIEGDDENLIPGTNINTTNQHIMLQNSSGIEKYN
Method: Blood was collected from normal lipidemic volunteers. EDTA was used as anticoagulant (1.5 mg/ml of blood). […] LDL was isolated from the plasma by discontinuous density gradient ultra centrifugation. Briefly, the plasma was centrifuged at 100,000×g at 4° C. for 20 hours. […] The LDL fraction in the top of the tube was collected and dialyzed overnight against three changes of phosphate buffer (pH 7.4), containing NaCl (150 mM), in the dark at 4° C. to remove NaBr and EDTA. The LDL in PBS was stored at 4° C. and used within 4 weeks. The purity of the fraction was confirmed by agarose gel electrophoresis and SDS-PAGE. Concentration of LDL protein was determined using bovine serum albumin (BSA) as a standard.
Lp-PLA2, the enzyme is also known as platelet-activating factor acetylhydrolase (PAF-AH), activity was measured using [^3H]PAF as a substrate. […] The reaction mixture, containing 20 μL of diluted human LDL (Lp-PLA2 source, 4-5 μg protein), 120 μL of PBS-EDTA, and 20 μL of test sample, was preincubated at 37° C. for 15 min. The reaction was initiated by the addition of 40 μL micelle substrate (0.1 μCi, final conc. 80 μM PAF) to measure initial rates of PAF-AH activity. […] The raw counts were corrected for background using a nonenzyme-containing blank and were expressed as nanomoles of PAF degraded per hour per milligram of protein.

in vivo = details: both, ICR, mouse, in vivo, po
Method: (§1) Specific pathogens free ICR mice of 4 weeks old (12 females and 12 males; 3 females and 3 males/dosage group) were raised in an animal chamber controlled with the temperature of 22±3° C., humidity of 55±10%, and illumination of 12L/12D cycle. The mice were acclimated for a week before the test. Feed for a test animal (CJ Corp., for mouse and rat) and water were supplied after sterilization and taken by the mice without any restriction.
(§2) The amount of 0.04 ml (100 mg/kg), 0.2 ml (500 mg/kg), and 0.4 ml (1,000 mg/kg) per mouse weight of 20 g was dosed individually to the mice by oral administration. The samples were dosed only one time, and adverse effect and mortality were observed during 7 days after the dosing as follows.
(§3) Additionally, on seventh day after the administration, the animals were sacrificed and dissected to examine internal organs with naked eye. Weight loss due to (E)-3,4-di-fluorobenzaldehyde O-benzoyloxime or (E)-2,3-di-fluorobenzaldehyde O-morpholine-4-carbonyloxime was observed by measuring weight changes at the intervals of 1 day since the dosage.

ICR mice = assay: in vivo; details: single oral dose up to 1,000 mg/kg, ICR mice, 7 days
Method: as §1, §2, §3

SMILES | inhibition at 25 µM (Lp-PLA2) [%] | LD50 at 7 days (in vivo) [mg/kg] | toxicity (clinical symptoms, weight change, blood test, biochemical test of blood, necropsy) (ICR mice)
O=C(O/N=C(\OC(=O)c1ccccc1)c1ccccc1)c1ccccc1 [Example 16, (E)-1-benzoic acid-benzaldehyde O-benzoyloxime] | 29 | – | –
O=C(O/N=C/c1ccc(F)c(F)c1)c1ccccc1 [Example 21, (E)-3,4-di-fluorobenzaldehyde O-benzoyloxime] | – | > 1000 | –
O=C(O/N=C/c1cccc(F)c1F)N1CCOCC1 [Example 30, (E)-2,3-di-fluorobenzaldehyde O-morpholine-4-carbonyloxime] | – | > 1000 | did not show any toxicity
